Data reported in US20190112598A1, “Methods and Systems of Cell-Free Enzyme Discovery and Optimization” (President and Fellows of Harvard College, priority 2016, published 2019).

Molecular target: T1, AcuR (Cereibacter sphaeroides, UniProt Q3J6K8)
T1 construct: made in house; host or cells: cell-free expression reaction (NEB P/N E6800 components A and B) from T7-promoter linear dsDNA, made in the assay well itself
T1 sequence (Q3J6K8 1-219): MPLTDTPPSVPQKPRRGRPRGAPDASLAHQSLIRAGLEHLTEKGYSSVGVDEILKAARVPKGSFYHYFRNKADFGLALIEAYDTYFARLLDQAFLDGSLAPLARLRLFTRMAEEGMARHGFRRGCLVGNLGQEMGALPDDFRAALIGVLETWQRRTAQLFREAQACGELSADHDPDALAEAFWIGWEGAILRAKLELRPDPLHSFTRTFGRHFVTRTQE
Assay: Cell-free observation of acrylate: AcuR sensor with GFP reporter in a cell-free expression reaction
Type: biochemical
Conditions: 0.1 mM sodium acrylate; 37° C.; 395 nm excitation; measured every two minutes for 4 hours; sample without acrylate rose to 260; FIG. 1
Description: DNA encoded biological acrylate sensor was used to detect acrylate. AcuR is a transcription factor whose activity is dependent on the concentration of acrylate. A linear dsDNA encoding the acrylate sensor AcuR is combined with a reporter circular plasmid which contained a GFP protein controlled by a promoter regulated by AcuR. Thus, GFP fluorescence is related to the amount of acrylate in the sample.
In order to obtain an adequate signal-to-noise ratio (SNR), a T7 promoter was used to drive the expression of the sensor to achieve high expression of the sensor protein and ensure outnumbering of the number of reporter promoters, and well controlled expression. Additionally, an E. coli RNAP promoter was used to drive expression on the reporter, as it reduces the level of background signal, and provides with a more accurate control by AcuR.
Linear DNA amplification: Linear dsDNA containing AcuR was prepared by PCR amplification using primers which contain a T7 promoter, and ribosome binding site (RBS). […]
The samples were incubated at 37° C., and the fluorescence signal (395 nm excitation, 470 nm […]) of the sample was measured every two minutes for 4 hours.

In the case of C=CC(=O)O [acrylate], the “increase of fluorescence (GFP reporter signal)” value was 750 arbitrary units.
